Results published in patent publication US11780826B2 (Amgen Inc., priority 2017, dated 2023).

Tested on: Bovine cardiac myofibrils
Experiment: In vitro model of dose-dependent myofibril ATPase modulation (AC1.4, pyruvate kinase/lactate dehydrogenase-coupled ATPase assay at pCa25)
Assay type: biochemical
Conditions: concentration at which ATPase activity was 1.4-fold higher than the bottom of the dose curve, mean of a minimum of two independent tests
Outline: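 ATP turnover tracked as NADH absorbance loss at 340 nm, coupled via pyruvate kinase/lactate dehydrogenase, with 1 mM ATP, 2 mM MgCl2 and 12 mM K-PIPES at pH 6.80 (22° C) under EGTA/CaCl2 calcium buffering. Substrate was detergent-treated bovine cardiac myofibrils; 4-parameter curve fit, AC1.4 averaged over at least two runs.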

Compound	AC1.4
NS(=O)(=O)c1cccc(C(=O)N2CCCC[C@@H]2C(=O)N[C@@H](c2ccc(C(F)(F)F)cc2F)C2CC2)c1 [Example 359, (2R)-N-((R)-cyclopropyl(2-fluoro-4-(trifluoromethyl)phenyl)methyl)-1-(3-sulfamoylbenzoyl)-2-piperidinecarboxamide]	1.1055 µM
N#CC1CN(S(=O)(=O)N2CCC[C@H](C(=O)N3CCC[C@@H]3C(=O)NCc3ccc(F)cc3F)C2)C1 [Example 360, 1-(((3S)-1-((3-cyano-1-azetidinyl)sulfonyl)-3-piperidinyl)carbonyl)-N-(2,4-difluorobenzyl)-D-prolinamide]	1.11 µM
O=C(N[C@@H](c1cc(F)c(C(F)(F)F)cc1F)C1CC1)[C@H]1C[C@H]2C[C@H]2N1C(=O)c1cncc(C(F)(F)F)c1 [Example 361, (1R,3R,5R)-N-((R)-cyclopropyl(2,5-difluoro-4-(trifluoromethyl)phenyl)methyl)-2-((5-(trifluoromethyl)-3-pyridinyl)carbonyl)-2-azabicyclo[3.1.0]hexane-3-carboxamide]	1.1125 µM
CS(=O)(=O)c1cncc(C(=O)N2CCC[C@@H]2C(=O)N[C@@H](c2cc(F)c(Cl)cc2F)C2CC2)c1 [Example 362, N-((R)-(4-chloro-2,5-difluorophenyl)(cyclopropyl)methyl)-1-((5-(methylsulfonyl)-3-pyridinyl)carbonyl)-D-prolinamide]	1.0375 µM
CN(Cc1ccc(C(F)(F)F)cc1)C(=O)[C@H]1CCCN1C(=O)[C@H]1CCCN(S(=O)(=O)N2CC(C#N)C2)C1 [Example 363, 1-(((3S)-1-((3-cyano-1-azetidinyl)sulfonyl)-3-piperidinyl)carbonyl)-N-methyl-N-(4-(trifluoromethyl)benzyl)-D-prolinamide]	1.143 µM
CS(=O)(=O)c1cccc(C(=O)N2C[C@@H](F)C[C@@H]2C(=O)N[C@@H](c2ccc(Cl)c(F)c2)C2COC2)c1 [Example 365, (4S)-N-((R)-(4-chloro-3-fluorophenyl)(3-oxetanyl)methyl)-4-fluoro-1-(3-(methylsulfonyl)benzoyl)-D-prolinamide]	1.139 µM
N#Cc1cccc(C(=O)N2[C@@H](C(=O)N[C@@H](c3ccc(C(F)(F)F)cc3F)C3COC3)C[C@H]3C[C@H]32)c1 [Example 366, (1R,3R,5R)-2-(3-cyanobenzoyl)-N-((R)-(2-fluoro-4-(trifluoromethyl)phenyl)(3-oxetanyl)methyl)-2-azabicyclo[3.1.0]hexane-3-carboxamide]	1.1445 µM
O=C(NCc1ccc(C(F)(F)F)cc1)[C@H]1CCCN1C(=O)[C@H]1CCCN(S(=O)(=O)N2CC(n3cccc3)C2)C1 [Example 367, 1-(((3S)-1-((3-(1H-pyrrol-1-yl)-1-azetidinyl)sulfonyl)-3-piperidinyl)carbonyl)-N-(4-(trifluoromethyl)benzyl)-D-prolinamide]	1.1962 µM
CC1(O)CN(S(=O)(=O)c2cccc(C(=O)N3CCC[C@@H]3C(=O)NCc3ccc(C(F)(F)F)cc3F)c2)C1 [Example 368, N-(2-fluoro-4-(trifluoromethyl)benzyl)-1-(3-((3-hydroxy-3-methyl-1-azetidinyl)sulfonyl)benzoyl)-D-prolinamide]	1.2 µM
O=C(N[C@@H](c1ccc(C(F)(F)F)cc1F)C1CC1)[C@H]1CCCN1C(=O)c1cccc(C2CC2)c1 [Example 369, 1-(3-cyclopropylbenzoyl)-N-((R)-cyclopropyl(2-fluoro-4-(trifluoromethyl)phenyl)methyl)-D-prolinamide]	1.1795 µM
O=C(NCc1ccc(C(F)(F)F)cc1)[C@H]1CCCN1C(=O)[C@H]1CCCN(S(=O)(=O)N2CC(O)(c3ccccc3)C2)C1 [Example 371, 1-(((3S)-1-((3-hydroxy-3-phenyl-1-azetidinyl)sulfonyl)-3-piperidinyl)carbonyl)-N-(4-(trifluoromethyl)benzyl)-D-prolinamide]	1.216 µM
CC(=O)Nc1ccccc1C(=O)N1[C@@H](C(=O)N[C@@H](c2ccc(C(F)(F)F)cc2F)C2CC2)C[C@H]2C[C@H]21 [Example 372, (1R,3R,5R)-2-(2-acetamidobenzoyl)-N-((R)-cyclopropyl(2-fluoro-4-(trifluoromethyl)phenyl)methyl)-2-azabicyclo[3.1.0]hexane-3-carboxamide]	1.2085 µM
N#CC1CN(S(=O)(=O)N2CCC[C@H](C(=O)N3CCC[C@@H]3C(=O)NCc3ccc(C(F)(F)F)cn3)C2)C1 [Example 373, 1-(((3S)-1-((3-cyano-1-azetidinyl)sulfonyl)-3-piperidinyl)carbonyl)-N-((5-(trifluoromethyl)-2-pyridinyl)methyl)-D-prolinamide]	1.2258 µM
O=C(N[C@@H](c1cc(F)c(Cl)cc1F)C1CC1)[C@H]1C[C@H]2C[C@H]2N1C(=O)c1cncc(C(F)(F)F)c1 [Example 374, (1R,3R,5R)-N-((R)-(4-chloro-2,5-difluorophenyl)(cyclopropyl)methyl)-2-((5-(trifluoromethyl)-3-pyridinyl)carbonyl)-2-azabicyclo[3.1.0]hexane-3-carboxamide]	1.2265 µM
CS(=O)(=O)c1cccc(C(=O)N2[C@@H](C(=O)N[C@@H](c3ccc(C(F)(F)F)cc3)C3COC3)C[C@H]3C[C@H]32)c1 [Example 375, (1R,3R,5R)-2-(3-(methylsulfonyl)benzoyl)-N-((R)-3-oxetanyl(4-(trifluoromethyl)phenyl)methyl)-2-azabicyclo[3.1.0]hexane-3-carboxamide]	1.2153 µM
N#CC1CN(S(=O)(=O)c2cccc(C(=O)N3CCC[C@@H]3C(=O)NCc3ncc(Cl)s3)c2)C1 [Example 376, N-((5-chloro-1,3-thiazol-2-yl)methyl)-1-((3-((3-cyano-1-azetidinyl)sulfonyl)phenyl)carbonyl)-D-prolinamide]	1.2296 µM
CS(=O)(=O)c1cccc(C(=O)N2C=CC[C@@H]2C(=O)N[C@@H](c2ccc(C(F)(F)F)cc2F)C2CC2)c1 [Example 377, (2R)—N—((R)-cyclopropyl(2-fluoro-4-(trifluoromethyl)phenyl)methyl)-1-(3-(methylsulfonyl)benzoyl)-2,3-dihydro-1H-pyrrole-2-carboxamide]	1.216 µM
O=C(N[C@@H](c1ccc(C(F)(F)F)cc1F)C1CC1)[C@H]1CCCN1C(=O)c1cccc(Cl)c1 [Example 378, 1-(3-chlorobenzoyl)-N-((R)-cyclopropyl(2-fluoro-4-(trifluoromethyl)phenyl)methyl)-D-prolinamide]	1.227 µM
N#CC1CN(S(=O)(=O)N2CCC[C@H](C(=O)N3CCC[C@@H]3C(=O)NCc3cc(F)cc(C(F)(F)F)c3)C2)C1 [Example 379, 1-(((3S)-1-((3-cyano-1-azetidinyl)sulfonyl)-3-piperidinyl)carbonyl)-N-(3-fluoro-5-(trifluoromethyl)benzyl)-D-prolinamide]	1.237 µM
O=C(NCc1ccc(C(F)(F)F)cc1)[C@H]1CCCN1C(=O)[C@H]1CCCN(S(=O)(=O)N2CC(C(F)(F)F)C2)C1 [Example 380, 1-(((3S)-1-((3-(trifluoromethyl)-1-azetidinyl)sulfonyl)-3-piperidinyl)carbonyl)-N-(4-(trifluoromethyl)benzyl)-D-prolinamide]	1.257 µM
Cc1cc(F)ccc1CNC(=O)[C@H]1CCCN1C(=O)[C@H]1CCCN(S(=O)(=O)N2CC(C#N)C2)C1 [Example 381, 1-(((3S)-1-((3-cyano-1-azetidinyl)sulfonyl)-3-piperidinyl)carbonyl)-N-(4-fluoro-2-methylbenzyl)-D-prolinamide]	1.268 µM
